For 51 molecules, IC50 results are on record in patent publication US9732075B2, “Benzimidazole-proline derivatives” (IDORSIA PHARMACEUTICALS LTD, priority 2012, dated 2017).

A word on the IC50: it is the concentration that inhibits the measured activity by half.

The target in one test is human orexin-2 receptor (Homo sapiens (Human), UniProt O43614). The test is described as follows: In vitro assay: intracellular calcium measurements (FLIPR), antagonistic activity. The format is cell-based. The note with it: CHO cells expressing human orexin-2 receptor, orexin-A agonist, geometric mean, read-out: IC50 Ox2. In a few lines:
(§1)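 Orexin-A-evoked calcium rise (3 nM final, roughly EC70) was recorded with fluo-4 in recombinant CHO cells, human receptor subtype 1 or 2.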
For orientation: Calcium flux is commonly read through the fluorescence of an indicator in the cells.

The target of a further test is human orexin-1 receptor (Homo sapiens (Human), UniProt O43613). The description is as above. Type of test: cell-based. The note with it: CHO cells expressing human orexin-1 receptor, orexin-A agonist, geometric mean, read-out: IC50 Ox1. The method, boiled down:
as §1

Sequence of human orexin-1 receptor (O43613 whole entry): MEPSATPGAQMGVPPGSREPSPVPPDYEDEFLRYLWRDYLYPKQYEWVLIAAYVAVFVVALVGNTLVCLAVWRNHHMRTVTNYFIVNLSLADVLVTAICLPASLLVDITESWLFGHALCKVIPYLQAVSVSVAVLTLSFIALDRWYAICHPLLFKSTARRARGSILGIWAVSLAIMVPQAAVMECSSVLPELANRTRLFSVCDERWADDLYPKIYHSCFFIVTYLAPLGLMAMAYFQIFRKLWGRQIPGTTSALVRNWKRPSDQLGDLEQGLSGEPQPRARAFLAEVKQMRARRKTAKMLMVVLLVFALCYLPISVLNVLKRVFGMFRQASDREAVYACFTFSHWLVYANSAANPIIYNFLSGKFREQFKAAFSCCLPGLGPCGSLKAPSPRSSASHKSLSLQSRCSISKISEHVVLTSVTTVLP
Sequence of human orexin-2 receptor (O43614 whole entry): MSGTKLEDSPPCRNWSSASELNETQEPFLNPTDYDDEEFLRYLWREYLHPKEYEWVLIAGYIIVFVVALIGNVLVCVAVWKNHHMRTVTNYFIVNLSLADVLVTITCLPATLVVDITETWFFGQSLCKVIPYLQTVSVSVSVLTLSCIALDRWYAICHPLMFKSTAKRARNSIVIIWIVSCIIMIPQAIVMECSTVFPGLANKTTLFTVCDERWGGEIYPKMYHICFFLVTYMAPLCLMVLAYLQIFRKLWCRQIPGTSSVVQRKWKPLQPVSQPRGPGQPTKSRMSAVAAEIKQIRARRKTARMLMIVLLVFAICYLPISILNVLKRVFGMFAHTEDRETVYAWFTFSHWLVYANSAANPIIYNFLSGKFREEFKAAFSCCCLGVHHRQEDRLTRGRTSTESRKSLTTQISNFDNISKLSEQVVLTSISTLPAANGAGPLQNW

Regarding `CCn1c([C@]2(C)CCCN2C(=O)c2cc(C)ccc2-n2nccn2)nc2c(C)c(Cl)ccc21` [Ex. 7.21], the IC50 on human orexin-2 receptor turned out to be 2 nM; at human orexin-1 receptor, 1 nM.

Turning to `CSc1ccc2nc([C@@H]3CCCN3C(=O)c3nc(C)sc3-c3ccc(Br)cc3)[nH]c2c1` [Ex. 1.34], the results for the IC50 at human orexin-2 receptor and on human orexin-1 receptor were 56 nM and 124 nM, respectively.

With `CCc1ccc(-c2sc(C)nc2C(=O)N2CCC[C@H]2c2nc3ccc(SC)cc3[nH]2)cc1` [Ex. 1.42], the IC50 at human orexin-2 receptor turned out to be 65 nM; on human orexin-1 receptor, 263 nM.

As for `Cc1ccc(-n2cccn2)c(C(=O)N2CC[C@H](C)[C@H]2c2nc3cc(C)c(C)cc3[nH]2)c1` [Ex. 4.83], the half-inhibitory concentration (IC50) worked out at 2320 nM on human orexin-2 receptor and 159 nM at human orexin-1 receptor.

Take `Cc1ccc(-c2ccccc2)c(C(=O)N2CCC[C@@]2(C)c2nc3c(C)c(C)c(Br)cc3[nH]2)c1` [Ex. 5.270]: the results for the IC50 at human orexin-2 receptor and on human orexin-1 receptor were 9 nM and 7 nM, respectively.

For `COc1cc2nc([C@@H]3[C@@H](C)CCN3C(=O)c3ccccc3-n3cccn3)[nH]c2cc1OC` [Ex. 4.56], the IC50 on human orexin-2 receptor was determined as 2620 nM; at human orexin-1 receptor it was 283 nM.

With `C=C1C[C@@H](c2nc3cc(C(C)(C)C)ccc3[nH]2)N(C(=O)c2cc(C(F)(F)F)ccc2-n2nccn2)C1` [Ex. 6.168], the values for the IC50 at human orexin-2 receptor and on human orexin-1 receptor were 54 nM and 261 nM, respectively.

For the molecule `CCn1c([C@]2(C)CCCN2C(=O)c2cc(C)ccc2-c2cccc(OC)c2)nc2cc(C)c(C)cc21` [Ex. 7.44], the IC50 is 35 nM at human orexin-2 receptor and 21 nM on human orexin-1 receptor.

As for `Cc1nc(C(=O)N2CCCC2c2nc3cc(Cl)c(Cl)cc3[nH]2)c(-c2cccc(Cl)c2)s1` (stereo not drawn) [Ex. 1.92], the IC50 was 69 nM on human orexin-2 receptor and 23 nM at human orexin-1 receptor.

`Cc1ccc(-c2ccccc2)c(C(=O)N2CC[C@H](C)[C@H]2c2nc3c(C)c(Cl)ccc3[nH]2)c1` [Ex. 4.172]: the 50% inhibitory concentration (IC50) on human orexin-2 receptor was found to be 457 nM; at human orexin-1 receptor, 2 nM.

`C=C1CC(c2nc3c(C)cc(C)cc3[nH]2)N(C(=O)c2nc(C3CC3)sc2-c2cccc(C)c2)C1` (stereo not drawn) [Ex. 6.91]: the IC50 is 1 nM on human orexin-2 receptor and 2 nM on human orexin-1 receptor.

Regarding `C=C1CN(C(=O)c2nc(C)sc2-c2cccc(Cl)c2)C(C)(c2nc3cc(OC)ccc3[nH]2)C1` (stereo not drawn) [Ex. 6.153], the IC50 on human orexin-2 receptor came to 16 nM; on human orexin-1 receptor, 8 nM.

In the case of `COc1ccc2nc([C@@H]3C[C@@H](OC)CN3C(=O)c3ccc(C)cc3-n3nccn3)[nH]c2c1` [Ex. 3.21], the 50% inhibitory concentration (IC50) at human orexin-2 receptor amounted to 33 nM; at human orexin-1 receptor, 2510 nM.

As to `Cc1nc(C(=O)N2CCC[C@H]2c2nc3cccc(Cl)c3[nH]2)c(-c2cccc(Cl)c2)s1` [Ex. 1.14], the IC50 at human orexin-2 receptor is 32 nM; at human orexin-1 receptor, 34 nM.

Regarding `Cc1nc(C(=O)N2CC[C@H](C)[C@H]2c2nc3cc(CO)ccc3[nH]2)c(-c2cccc(Cl)c2)s1` [Ex. 4.27], the IC50 at human orexin-2 receptor came to 5590 nM; at human orexin-1 receptor, 59 nM.

Take `Cc1nc(C(=O)N2CCCC2c2nc3cc(OC(F)(F)F)ccc3[nH]2)c(-c2ccccc2)s1` (stereo not drawn) [Ex. 1.132]: the results for the IC50 on human orexin-2 receptor and at human orexin-1 receptor were 614 nM and 90 nM, respectively.

In the case of `COc1cccc(-c2sc(C)nc2C(=O)N2CCC[C@@]2(C)c2nc3c(F)c(F)ccc3[nH]2)c1` [Ex. 5.213], the IC50 was 51 nM on human orexin-2 receptor and 16 nM on human orexin-1 receptor.

As for `CO[C@H]1CN(C(=O)c2nc(C)sc2-c2cccc(Cl)c2)C(C)(c2nc3c(C)cccc3[nH]2)C1` (stereo partly drawn) [Ex. 3.28], the IC50 was 19 nM on human orexin-2 receptor and 10 nM on human orexin-1 receptor.

As to `Cc1ccc(-c2sccc2C(=O)N2CC[C@H](C)[C@H]2c2nc3cc(C(F)(F)F)ccc3[nH]2)cc1C` [Ex. 4.144], the results for the IC50 on human orexin-2 receptor and on human orexin-1 receptor were 463 nM and 9 nM, respectively.

As for `COc1ccc2[nH]c([C@]3(C)CCCN3C(=O)c3cc(C)ccc3-n3nccn3)nc2c1` [Ex. 5.32], the IC50 at human orexin-2 receptor turned out to be 46 nM; on human orexin-1 receptor, 90 nM.

For the molecule `CCn1c([C@]2(C)CCCN2C(=O)c2cc(C)ccc2-c2cccc(F)c2)nc2cc(C)c(C)cc21` [Ex. 7.31], the concentration for half-maximal inhibition (IC50) at human orexin-2 receptor is 19 nM; at human orexin-1 receptor it was 8 nM.

Regarding `C=C1C[C@@H](c2nc3c(C)c(Cl)ccc3[nH]2)N(C(=O)c2cc(C)ccc2-n2nccn2)C1` [Ex. 6.42], the IC50 on human orexin-2 receptor was 2 nM; on human orexin-1 receptor, 12 nM.

Turning to `Cc1nc(C(=O)N2CC[C@H](C)[C@H]2c2nc3c(F)cccc3[nH]2)c(-c2cccc(Cl)c2)s1` [Ex. 4.18], the concentration for half-maximal inhibition (IC50) at human orexin-2 receptor was determined as 2930 nM; on human orexin-1 receptor, 43 nM.

On to `Cc1nc(C(=O)N2CC[C@H](C)[C@H]2c2nc3cc(Cl)ccc3[nH]2)c(-c2cccc(Cl)c2)s1` [Ex. 4.11], for which the IC50 on human orexin-2 receptor was determined as 4060 nM; at human orexin-1 receptor, 10 nM.

For the molecule `C=C1C[C@@H](c2nc3cc(OC)ccc3[nH]2)N(C(=O)c2nc(C)sc2-c2cccc(C)c2)C1` [Ex. 6.7], the 50% inhibitory concentration (IC50) on human orexin-2 receptor was determined as 3 nM; at human orexin-1 receptor, 15 nM.

On to `CO[C@@H]1C[C@@H](c2nc3c(C)cccc3[nH]2)N(C(=O)c2nc(C)sc2-c2ccccc2)C1` [Ex. 3.4], for which the IC50 was found to be 14 nM on human orexin-2 receptor and 44 nM at human orexin-1 receptor.

Take `Cc1nc(C(=O)N2CCCC2c2nc3cc(Cl)c(Cl)cc3[nH]2)c(-c2ccccc2)s1` (stereo not drawn) [Ex. 1.119]: the IC50 at human orexin-2 receptor worked out at 77 nM; at human orexin-1 receptor it was 27 nM.

Turning to `Cc1ccc(-c2ccc(C(F)(F)F)cc2)c(C(=O)N2CCC[C@@]2(C)c2nc3cc(C(F)(F)F)c(Cl)cc3[nH]2)c1` [Ex. 5.157], the IC50 at human orexin-2 receptor was found to be 538 nM; at human orexin-1 receptor, 367 nM.

On to `Cc1nc(C(=O)N2CCCC2c2nc3cc(C(F)(F)F)c(Cl)cc3[nH]2)c(-c2cccc(Cl)c2)s1` (stereo not drawn) [Ex. 1.113], for which the concentration for half-maximal inhibition (IC50) amounted to 58 nM at human orexin-2 receptor and 5 nM on human orexin-1 receptor.

Take `COc1ccccc1-c1ccc(C)cc1C(=O)N1CCC[C@@]1(C)c1nc2cc(C)c(C)cc2[nH]1` [Ex. 5.92]: the IC50 on human orexin-2 receptor amounted to 177 nM; on human orexin-1 receptor it was 62 nM.

For `Cc1ccc(-c2ccccn2)c(C(=O)N2CCC[C@@]2(C)c2nc3c(C)c(Cl)ccc3[nH]2)c1` [Ex. 5.215], the IC50 at human orexin-2 receptor worked out at 11 nM; on human orexin-1 receptor, 4 nM.

Regarding `Cc1ccc(C(=O)N2CCC[C@@]2(C)c2nc3c(F)c(F)ccc3[nH]2)c(-n2nccn2)c1` [Ex. 5.202], the values for the IC50 on human orexin-2 receptor and on human orexin-1 receptor were 924 nM and 227 nM, respectively.

In the case of `Cc1nc(C(=O)N2CC[C@H](C)[C@H]2c2nc3c(Cl)cccc3[nH]2)c(-c2cc(F)cc(F)c2)s1` [Ex. 4.119], the IC50 is 2050 nM on human orexin-2 receptor and 21 nM at human orexin-1 receptor.

With `COc1ccc(-c2ccccc2F)c(C(=O)N2CCC[C@@]2(C)c2nc3c(C)c(Cl)ccc3[nH]2)c1F` [Ex. 5.298], the IC50 on human orexin-2 receptor is 21 nM; at human orexin-1 receptor it was 15 nM.

For the molecule `COc1ccc2nc([C@@H]3C[C@@H](OC)CN3C(=O)c3cc(Cl)ccc3-n3nccn3)[nH]c2c1` [Ex. 3.19], the concentration for half-maximal inhibition (IC50) at human orexin-2 receptor was 21 nM; on human orexin-1 receptor it was 1930 nM.

Take `CSc1ccc2nc([C@@H]3CCCN3C(=O)c3nc(C)sc3-c3cccc(F)c3)[nH]c2c1` [Ex. 1.39]: the IC50 worked out at 73 nM at human orexin-2 receptor and 157 nM at human orexin-1 receptor.

As for `Cc1ccc(-c2ncccn2)c(C(=O)N2CCC[C@@]2(C)c2nc3cc(F)c(Br)cc3[nH]2)c1` [Ex. 5.282], the IC50 on human orexin-2 receptor came out at 97 nM; at human orexin-1 receptor, 47 nM.

Take `CSc1cccc2nc([C@@H]3CCCN3C(=O)c3nc(C)sc3-c3ccc(F)c(F)c3)[nH]c12` [Ex. 1.67]: the IC50 at human orexin-2 receptor was found to be 84 nM; on human orexin-1 receptor it was 127 nM.

Regarding `Cc1ccc(-c2ccccn2)c(C(=O)N2CC[C@H](C)[C@H]2c2nc3cc(Cl)c(C)cc3[nH]2)c1` [Ex. 4.102], the IC50 at human orexin-2 receptor came out at 103 nM; at human orexin-1 receptor, 10 nM.

For `Cc1ccc(-c2cccc(C#N)c2)c(C(=O)N2CCC[C@@]2(C)c2nc3cc(C(F)(F)F)c(Cl)cc3[nH]2)c1` [Ex. 5.159], the IC50 at human orexin-2 receptor was 37 nM; at human orexin-1 receptor, 23 nM.

For `C=C1C[C@@H](c2nc3c(C)cc(C)cc3[nH]2)N(C(=O)c2cc(C)ccc2-n2nccn2)C1` [Ex. 6.62], the figures for the IC50 on human orexin-2 receptor and at human orexin-1 receptor were 4 nM and 44 nM, respectively.

As for `Cc1ccc(-c2ccccc2C(=O)N2CC[C@H](C)[C@H]2c2nc3c(C)cc(Cl)cc3[nH]2)cc1` [Ex. 4.92], the IC50 was 212 nM on human orexin-2 receptor and 5 nM on human orexin-1 receptor.

As for `COc1ccc2nc([C@@H]3CCCN3C(=O)c3nc(C)sc3-c3cccc(Cl)c3Cl)[nH]c2c1` [Ex. 1.19], the IC50 was found to be 76 nM at human orexin-2 receptor and 660 nM at human orexin-1 receptor.

Take `CCn1c([C@]2(C)CCCN2C(=O)c2cc(C)c(C)cc2-n2nccn2)nc2cc(OC)c(OC)cc21` [Ex. 7.14]: the IC50 is 50 nM on human orexin-2 receptor and 23 nM on human orexin-1 receptor.

As for `Cc1nc(C(=O)N2CC[C@H](C)[C@H]2c2nc3cc(Cl)c(C)cc3[nH]2)c(-c2cc(F)cc(F)c2)s1` [Ex. 4.80], the IC50 on human orexin-2 receptor turned out to be 2020 nM; at human orexin-1 receptor, 3 nM.

`Cc1nc(C(=O)N2CC[C@H](C)[C@H]2c2nc3cc(C(F)(F)F)ccc3[nH]2)c(-c2cc(F)cc(F)c2)s1` [Ex. 4.148]: the half-maximal inhibitory concentration (IC50) was determined as 3180 nM on human orexin-2 receptor and 7 nM on human orexin-1 receptor.

Consider `Cc1ccc(-n2nccn2)c(C(=O)N2CCC[C@@]2(C)c2nc3cc(OC(F)(F)F)ccc3[nH]2)c1` [Ex. 5.20], for which the IC50 at human orexin-2 receptor is 161 nM; on human orexin-1 receptor it was 19 nM.

Take `COc1ccc(-c2cccc(C)c2)c(C(=O)N2CCC[C@@]2(C)c2nc3ccc(Cl)c(C)c3[nH]2)c1F` [Ex. 5.301]: the IC50 at human orexin-2 receptor was determined as 16 nM; at human orexin-1 receptor, 24 nM.

For `Cc1c(Cl)ccc2[nH]c([C@@H]3[C@@H](C)CCN3C(=O)c3cc(C(F)(F)F)ccc3-c3ccccc3)nc12` [Ex. 4.170], the values for the IC50 on human orexin-2 receptor and at human orexin-1 receptor were 1430 nM and 11 nM, respectively.

In the case of `Cc1c(Cl)ccc2[nH]c([C@]3(C)CCCN3C(=O)c3cc(Cl)ccc3-n3nccn3)nc12` [Ex. 5.34], the IC50 on human orexin-2 receptor was 9 nM; at human orexin-1 receptor, 2 nM.

Take `Cc1nc(C(=O)N2CC[C@H](C)[C@H]2c2nc3cc(C)c(C)cc3[nH]2)c(-c2ccc(Cl)cc2)s1` [Ex. 4.87]: the IC50 at human orexin-2 receptor was found to be 2080 nM; on human orexin-1 receptor, 4 nM.
